From patent US20260285850A1, “SUBSTITUTED OXAZOLIDINONES AND IMIDAZOLINONES AS HERBICIDES” (FMC CORPORATION, priority 2023, published 2026)

What was measured:
Assay type in all cases: in vivo
[1] = test system: horseweed (Erigeron canadensis); experiment: Test A postemergence application, visual injury rating 0-100; conditions: 10 days
Summary of the method: (§1)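 Plants in a loam and sand soil blend were treated with each test chemical, in a non-phytotoxic solvent system including surfactant, either sprayed on seeded soil before emergence or applied after emergence at the one- to two-leaf stage. Ten days later in the greenhouse, plants were compared with untreated controls and visually rated from 0 (no effect) to 100 (complete control).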

[2] = test system: palmer (palmer amaranth, palmer pigweed, Amaranthus palmeri); experiment: as above; conditions: 10 days
Summary of the method: as §1

[3] = test system: wheat (Triticum aestivum); experiment: as above; conditions: 10 days
Summary of the method: as §1

[4] = test system: green foxtail (Setaria viridis); experiment: as above; conditions: 10 days
Summary of the method: as §1

[5] = test system: oat, wild (wild oat, Avena fatua); experiment: as above; conditions: 10 days
Summary of the method: as §1

[6] = test system: galium (catchweed bedstraw, Galium aparine); experiment: as above; conditions: 10 days
Summary of the method: as §1

kochia (Bassia scoparia) [7] = experiment: as above; conditions: 10 days
Summary of the method: as §1

[8] = test system: blackgrass (Alopecurus myosuroides); experiment: as above; conditions: 10 days
Summary of the method: as §1

[9] = test system: ragweed (common ragweed, Ambrosia artemisiifolia); experiment: as above; conditions: 10 days
Summary of the method: as §1

[10] = test system: barnyardgrass (Echinochloa crus-galli); experiment: as above; conditions: 10 days
Summary of the method: as §1

corn (Zea mays) [11] = experiment: as above; conditions: 10 days
Summary of the method: as §1

soybean (Glycine max) [12] = experiment: as above; conditions: 10 days
Summary of the method: as §1

[13] = test system: ryegrass, Italian (italian ryegrass, Lolium multiflorum); experiment: as above; conditions: 10 days
Summary of the method: as §1

[14] = test system: barnyardgrass (Echinochloa crusgalli); experiment: Test B flooded paddy test, visual plant response rating 0-100; conditions: 250 g ai/ha, Flood, applied to paddy water, evaluated after 13 days
Summary of the method: (§2)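 Plants were grown to the 2-leaf stage, then pots were flooded to 3 cm above the soil and test compounds were applied directly into the paddy water. Water depth was held there throughout; after 13 days in a greenhouse, injury was scored visually against untreated controls.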

rice (Oryza sativa) = experiment: as above; conditions: 250 g ai/ha, Flood, applied to paddy water, evaluated after 13 days
Summary of the method: as §2

[15] = test system: sedge, umbrella (small-flower umbrella sedge, Cyperus difformis); experiment: as above; conditions: 250 g ai/ha, Flood, applied to paddy water, evaluated after 13 days
Summary of the method: as §2

[16] = test system: ducksalad (Heteranthera limosa); experiment: as above; conditions: 250 g ai/ha, Flood, applied to paddy water, evaluated after 13 days
Summary of the method: as §2

[17] = test system: palmer (palmer amaranth, palmer pigweed, Amaranthus palmeri); experiment: Test A preemergence soil spray, visual injury rating 0-100; conditions: 10 days, 0 = no effect, 100 = complete control
Summary of the method: as §1

[18] = test system: wheat (Triticum aestivum); experiment: as above; conditions: 10 days, 0 = no effect, 100 = complete control
Summary of the method: as §1

[19] = test system: green foxtail (Setaria viridis); experiment: as above; conditions: 10 days, 0 = no effect, 100 = complete control
Summary of the method: as §1

[20] = test system: oat, wild (wild oat, Avena fatua); experiment: as above; conditions: 10 days, 0 = no effect, 100 = complete control
Summary of the method: as §1

kochia (Bassia scoparia) [21] = experiment: as above; conditions: 10 days, 0 = no effect, 100 = complete control
Summary of the method: as §1

[22] = test system: blackgrass (Alopecurus myosuroides); experiment: as above; conditions: 10 days, 0 = no effect, 100 = complete control
Summary of the method: as §1

[23] = test system: ragweed (common ragweed, Ambrosia artemisiifolia); experiment: as above; conditions: 10 days, 0 = no effect, 100 = complete control
Summary of the method: as §1

[24] = test system: barnyardgrass (Echinochloa crus-galli); experiment: as above; conditions: 10 days, 0 = no effect, 100 = complete control
Summary of the method: as §1

corn (Zea mays) [25] = experiment: as above; conditions: 10 days, 0 = no effect, 100 = complete control
Summary of the method: as §1

soybean (Glycine max) [26] = experiment: as above; conditions: 10 days, 0 = no effect, 100 = complete control
Summary of the method: as §1

[27] = test system: ryegrass, Italian (italian ryegrass, Lolium multiflorum); experiment: as above; conditions: 10 days, 0 = no effect, 100 = complete control
Summary of the method: as §1

[28] = 31 g ai/ha, postemergence, 0 = no effect, 100 = complete control
[29] = Postemergence, 125 g ai/ha, 0 is no effect, 100 is complete control

## CCOC(=O)COC(=O)C1C=CC(NC(=O)C2(C)CN(c3cc(F)cc(F)c3)C(=O)O2)C1 (stereo not shown) [Compound 53]
[1]; [28]
  Horseweed plant response rating (0-100): 60
[1]; [29]
  Horseweed plant response rating (0 to 100 scale): 70
[2]; [28]
  Amaranth, Palmer plant response rating (0-100): 70
[2]; [29]
  Amaranth, Palmer / Pigweed, Palmer plant response rating (0 to 100 scale): 90
[3]; [28]
  Wheat plant response rating (0-100): 90
[3]; [29]
  Wheat plant response rating (0 to 100 scale): 90
[4]; [28]
  Foxtail, Green plant response rating (0-100): 50
[4]; [29]
  Foxtail, Green plant response rating (0 to 100 scale): 70
[5]; [28]
  Oat, Wild plant response rating (0-100): 90
[5]; [29]
  Oat, Wild plant response rating (0 to 100 scale): 90
[6]; [28]
  Galium plant response rating (0-100): 80
[6]; [29]
  Galium plant response rating (0 to 100 scale): 80
Kochia (Bassia scoparia) [7]; [28]
  Kochia plant response rating (0-100): 80
Kochia (Bassia scoparia) [7]; [29]
  Kochia plant response rating (0 to 100 scale): 80
[8]; [28]
  Blackgrass plant response rating (0-100): 70
[8]; [29]
  Blackgrass plant response rating (0 to 100 scale): 80
[9]; [28]
  Ragweed plant response rating (0-100): 50
[9]; [29]
  Ragweed plant response rating (0 to 100 scale): 80
[10]; [28]
  Barnyardgrass plant response rating (0-100): 100
[10]; [29]
  Barnyardgrass plant response rating (0 to 100 scale): 100
Corn (Zea mays) [11]; [28]
  Corn plant response rating (0-100): 100
Corn (Zea mays) [11]; [29]
  Corn plant response rating (0 to 100 scale): 100
Soybean (Glycine max) [12]; [28]
  Soybean plant response rating (0-100): 70
Soybean (Glycine max) [12]; [29]
  Soybean plant response rating (0 to 100 scale): 70
[13]; [28]
  Ryegrass, Italian plant response rating (0-100): 90
[13]; [29]
  Ryegrass, Italian plant response rating (0 to 100 scale): 90
[14]
  Plant response rating, Barnyardgrass (0 to 100 scale, 0 is no effect and 100 is complete control): 90
Rice (Oryza sativa)
  Plant response rating, Rice (0 to 100 scale, 0 is no effect and 100 is complete control): 20
[15]
  Plant response rating, Sedge, Umbrella (0 to 100 scale, 0 is no effect and 100 is complete control): 60
[16]
  Plant response rating, Ducksalad (0 to 100 scale, 0 is no effect and 100 is complete control): 90
[17]; 31 g ai/ha
  Amaranth, Palmer plant response rating (0-100): 30
[17]; 125 g ai/ha
  Amaranth, Palmer plant response rating (0 to 100 scale): 60
[18]; 31 g ai/ha
  Wheat plant response rating (0-100): 70
[18]; 125 g ai/ha
  Wheat plant response rating (0 to 100 scale): 90
[19]; 31 g ai/ha
  Foxtail, Green plant response rating (0-100): 0
[19]; 125 g ai/ha
  Foxtail, Green plant response rating (0 to 100 scale): 20
[20]; 31 g ai/ha
  Oat, Wild plant response rating (0-100): 50
[20]; 125 g ai/ha
  Oat, Wild plant response rating (0 to 100 scale): 90
Kochia (Bassia scoparia) [21]; 31 g ai/ha
  Kochia plant response rating (0-100): 0
Kochia (Bassia scoparia) [21]; 125 g ai/ha
  Kochia plant response rating (0 to 100 scale): 90
[22]; 31 g ai/ha
  Blackgrass plant response rating (0-100): 50
[22]; 125 g ai/ha
  Blackgrass plant response rating (0 to 100 scale): 90
[23]; 31 g ai/ha
  Ragweed plant response rating (0-100): 0
[23]; 125 g ai/ha
  Ragweed plant response rating (0 to 100 scale): 20
[24]; 31 g ai/ha
  Barnyardgrass plant response rating (0-100): 30
[24]; 125 g ai/ha
  Barnyardgrass plant response rating (0 to 100 scale): 100
Corn (Zea mays) [25]; 31 g ai/ha
  Corn plant response rating (0-100): 0
Corn (Zea mays) [25]; 125 g ai/ha
  Corn plant response rating (0 to 100 scale): 60
Soybean (Glycine max) [26]; 31 g ai/ha
  Soybean plant response rating (0-100): 30
Soybean (Glycine max) [26]; 125 g ai/ha
  Soybean plant response rating (0 to 100 scale): 70
[27]; 31 g ai/ha
  Ryegrass, Italian plant response rating (0-100): 70
[27]; 125 g ai/ha
  Ryegrass, Italian plant response rating (0 to 100 scale): 100
